Legend:
[1] = target: T1, binding of human MCP-1 to THP-1 cells (Homo sapiens, UniProt P41597); assay: Inhibition of binding of [125I]-labeled baculovirus expressed human MCP-1 to THP-1 cells (Method 1); details: for inhibition at 100 µM: Method 1, at 100 μM
T1 construct: endogenous in cells; host or cells: THP-1 (human monocytic leukemia cell line), whole cells
T1 sequence (P41597 1-360 isoform P41597-2): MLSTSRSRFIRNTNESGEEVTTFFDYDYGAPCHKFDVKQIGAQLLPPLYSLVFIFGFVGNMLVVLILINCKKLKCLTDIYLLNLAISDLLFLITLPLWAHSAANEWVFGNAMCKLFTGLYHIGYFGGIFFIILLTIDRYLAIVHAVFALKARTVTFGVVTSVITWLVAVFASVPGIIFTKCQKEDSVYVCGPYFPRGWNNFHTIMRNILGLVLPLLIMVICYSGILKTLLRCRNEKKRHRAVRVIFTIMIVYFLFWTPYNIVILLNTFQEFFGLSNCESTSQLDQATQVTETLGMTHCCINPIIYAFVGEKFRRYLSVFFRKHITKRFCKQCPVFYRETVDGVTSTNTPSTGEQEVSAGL
From the text: Measurement of Inhibition of MCP-1 Binding to THP-1 Cells 1. Construction of recombinant baculovirus carrying the human MCP-1 gene Based on the previously published human MCP-1 gene sequence (for example T. Yoshirnura et al., FEBS Lett., 1989, 244, 487-493), two synthetic DNA primers ([NT] and [NT]) flanked by restriction enzyme sites were used to amplify a DNA fragment from cDNA derived from human endothelial cells (purchased from Kurabow Co.); the amplified fragment was cut with the restriction enzymes (PstI and XbaI), ligated into a transfer vector pVL1393 (Invitrogen Co.), and the resulting vector was co-transfected along with infectious baculovirus into Sf-9 insect cells and the supernatant was plaque assayed to yield human MCP-1 gene baculovirus recombinant. […] Using the method of K. Ishii et al. […] The culture supernatant was affinity purified using a heparin Sepharose column (Pharmacia Co.) and then further purified using reverse phase HPLC (Vydac C18 column) to prepare purified human MCP-1. […] 3-1. […] The test. compound was diluted in the assay buffer and used as the test compound solution. [^125I]-labeled human MCP-1 described above was diluted in assay buffer to 1 mCi/mL and used as the labeled ligand solution. In a 96 well filter plate (Millipore Co.), 25 μL of test compound solution, 25 μL of labeled ligand solution and 50 μL of cell suspension were aliquoted into each well in this order, stirred (total reaction volume 100 μL), and incubated for one hour at 18° C. After the reaction, the reaction solution was filtered, and the filter was washed twice with 200 μL of cold PBS (200 μL of cold PBS was added and then filtered). The filter was air-dried and 25 μL of liquid sciatillator was added into each well. The radioactivity retained by the cells on the filter were measured using TopCount (Packard Instrument Co.). To calculate the ability of test compound to inhibit binding of human MCP-1 to THP-1 cells, non-specific binding determined by adding 100 ng of unlabeled human MCP-1 in place of the test compound was subtracted, while the counts with no test compound added was taken as 100%. Inhibition (%)=(1-(A-B)/(C-B))×100 (A, counts with test compound added; B, counts with 100 ng of unlabeled human MCP-1 added; C, counts with [^125I]-labeled human MCP-1 added).

[2] = target: T2, binding of human MIP-1α to THP-1 cells (Homo sapiens, UniProt P32246); assay: Inhibition of MIP-1α binding to THP-1 cells
T2 construct: endogenous in cells; host or cells: THP-1 (human monocytic leukemia cell line), whole cells
T2 sequence (P32246 1-355): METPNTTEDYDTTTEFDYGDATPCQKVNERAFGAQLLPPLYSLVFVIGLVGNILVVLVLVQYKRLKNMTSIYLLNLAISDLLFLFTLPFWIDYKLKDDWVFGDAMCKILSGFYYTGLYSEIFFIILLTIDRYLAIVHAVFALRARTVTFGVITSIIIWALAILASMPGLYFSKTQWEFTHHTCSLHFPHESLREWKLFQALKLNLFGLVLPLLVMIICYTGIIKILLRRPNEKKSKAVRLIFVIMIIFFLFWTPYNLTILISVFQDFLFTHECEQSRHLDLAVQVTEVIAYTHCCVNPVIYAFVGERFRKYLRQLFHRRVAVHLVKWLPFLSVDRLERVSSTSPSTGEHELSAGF
Protocol: Measurement of Inhibition of MIP-1α Binding to THP-1 Cells by Test Compounds
(§1) Human monocytic leukemia cell line THP-1 was suspended in assay buffer (RPMI-1640 (Gibco-BRL Co.) containing 0.1% BSA and 25 mM HEPES adjusted to pH 7.4) to give a cell suspension of a concentration of 1×10^7 cells/mL. The test compound was diluted in the assay buffer and used as the test compound solution. Iodinated human MIP-1α (DuPont NEN Co.) was diluted in assay buffer to 250 nCi/mL and used as the labeled ligand solution. In a 96 well filter plate (Millipore Co.), 25 μL of test compound solution, 25 μL of labeled ligand solution and 50 μL of cell suspension were aliquoted into each well in this order, stirred (total reaction volume 100 μL), and incubated for one hour at 18° C.
(§2) After the reaction, the reaction solution was filtered, and the filter was washed twice with 200 μL of cold PBS (200 μL of cold PBS was added and then filtered). The filter was air-dried and 25 μL of liquid scintillator was added into each well. The radioactivity retained by the cells on the filter were measured using TopCounit (Packard Instrument Co.).
To calculate the ability of test compounds to inhibit binding of human MIP-1α to THP-1 cells, non-specific binding determined by adding 100 ng of unlabeled human MIP-1α (Peprotech Co.) in place of the test compound was subtracted, while the counts with no test compound added was taken as 100%.
(§3) Inhibition (%)={1−(A−B)/(C−B)}×100
(A, counts with test compound added; B, counts with 100 ng of unlabeled human MIP-1α added; C, counts with [^125I]-labeled human MIP-1α added).

THP-1 cells = assay: Inhibition of cell chemotaxis caused by MCP-1; type: cell-based; details: Homo sapiens, MCP-1 20 ng/mL, read-out: inhibition of cell migration IC50
Protocol: Measurement of Inhibition of Cell Chemotaxis
In order to determine the inhibition of cell chemotaxis by the compounds of this invention, we measured cell chemotaxis caused by monocyte chemotactic factor MCP-1 using the human monocytic leukemia cell line THP-1 as the chemotactic cell according to the method of Fall et al. (J. Immunol. Methods, 190, 33,239-247). 2×10^6 cells/mL of THP-1 cells (suspended in RPMI-1640 (Flow Laboratories Co.)+10% FCS) was placed in the upper chamber (200 μL) of a 96 well micro-chemotaxis chamber (Neuroprobe; registered tradename), and human recombinant MCP-1 in a same solution (Peprotech Co.) at a final concentration of 20 ng/mL was placed in the lower chamber, with a polycarbonate filter (PVP-free, Neuroprobe; registered tradename) placed between the two chambers. These were incubated at 37° C. for 2 hr in 5% CO2.
The filter was removed, and the cells which had migrated to the underside of the filter was fixed, stained using Diff Quick (Kokusai Shiyaku Co.) and then quantitated using a plate reader (Molecular Device Co.) at a wavelength of 550 nm to determine the index of cell migration as a mean of 3 wells. In addition, test compounds were placed in the upper and lower chambers along with THP-1 and MCP-1, respectively, and the inhibition of cell migration (inhibition IC50 (μM)) was determined.

[3] = target: T1, binding of human MCP-1 to THP-1 cells; assay: Inhibition of binding of [125I]-labeled baculovirus expressed human MCP-1 to THP-1 cells (Method 2); details: for inhibition at 1 µM: Method 2, at 1 μM
From the text: 1. Construction of recombinant baculovirus carrying the human MCP-1 gene
Based on the previously published human MCP-1 gene sequence (for example T. Yoshirnura et al., FEBS Lett., 1989, 244, 487-493), two synthetic DNA primers (5′-[…]-3′ and 5′-[…]-3′) flanked by restriction enzyme sites were used to amplify a DNA fragment from cDNA derived from human endothelial cells (purchased from Kurabow Co.); the amplified fragment was cut with the restriction enzymes (PstI and XbaI), ligated into a transfer vector pVL1393 (Invitrogen Co.), and the resulting vector was co-transfected along with infectious baculovirus into Sf-9 insect cells and the supernatant was plaque assayed to yield human MCP-1 gene baculovirus recombinant.
2. Synthesis of [^125I]-labeled human MCP-1 expressed in baculovirus
Using the method of K. Ishii et al. (Biochem Biophys Research Communications, 1995, 206, 955-961), 5×10^6 Sf-6 insect cells was infected with 5×10^7 PFU (plaque forming units) of the above human MCP-1 recombinant baculovirus and cultured for 7 days in Ex-Cell 401 medium. The culture supernatant was affinity purified using a heparin Sepharose column (Pharmacia Co.) and then further purified using reverse phase HPLC (Vydac C18 column) to prepare purified human MCP-1. The purified human MCP-1 was protein labeled by Amersham Co. using the Bolton Hunter method to yield [^125I]-labeled baculovirus expressed human MCP-1 (specific activity 2000 Ci/mmol).
3-2. Measurement of inhibition of binding of [^125I]-labeled baculovirus expressed human MCP-1 to THP-1 cells (Method 2)
as §1, with “(50” for “(RPMI-1640 (Gibco-BRL Co.) containing 0.1% BSA and 25”, “HEPES,” for “HEPES adjusted to”, “7.4, 1.0 mM CaCl2, 5.0% mM MgCl2, 0.5% BSA)” for “7.4)”, “[^125I]-labeled” for “Iodinated”, “MCP-1 described above” for “MIP-1α (DuPont NEN Co.)”, “1 mCi/mL” for “250 nCi/mL”
as §2, with “TopCount” for “TopCounit”
To calculate the ability of test compound to inhibit binding of human MCP-1 to THP-1 cells, non-specific binding determined by adding 100 ng of unlabeled human MCP-1 in place of the test compound was subtracted, while the counts with no test compound added was taken as 100%.
as §3
(A, counts with test compound added; B, counts with 100 ng of unlabeled human MCP-1 added; C, counts with [^125I]-labeled human MCP-1 added).

| Structure (SMILES) | inhibition at 100 µM [1] | inhibition at 10 µM [2] | IC50 (THP-1 cells) | also measured |
| --- | --- | --- | --- | --- |
| O=C(CNC(=O)c1ccccc1)NCC1CCN(Cc2ccc(Cl)cc2)CC1 [Compound No. 458, 4-{(N-Benzoylglycyl)amino}methyl-1-(4-chlorobenzyl)piperidine] | > 80% | 50 to 80% |  |  |
| O=C(CNC(=O)c1cccc(C(F)(F)F)c1)NCC1CCN(Cc2ccc(Cl)cc2)CC1 [Compound No. 461, 1-(4-chlorobenzyl)-4-[{N-(3-(trifluoromethyl)benzoyl)glycyl}aminomethyl]piperidine] |  | > 80% | < 100 nM |  |
| CN(CC1CCN(Cc2ccc(Cl)cc2)CC1)C(=O)CNC(=O)c1cccc(C(F)(F)F)c1 [Compound No. 520, 1-(4-chlorobenzyl)-4-[N-methyl-N-{N-(3-(trifluoromethyl)benzoyl)glycyl}aminomethyl]piperidine] |  | 50 to 80% |  | inhibition at 10 µM ([1]; Method 1, at 10 μM): 50 to 80% |
| O=C(NCC(=O)N(CC1CCN(Cc2ccc(Cl)cc2)CC1)CC(c1ccccc1)c1ccccc1)c1ccccc1 [Compound No. 524, 4-{N-(N-Benzoylglycyl)-N-(2,2-diphenylethyl)aminomethyl}-1-(4-chlorobenzyl)piperidine] |  | 20 to 50% |  |  |
| CC(C)[C@H](NC(=O)c1cccc(C#N)c1)C(=O)NCC1CCN(Cc2ccc(Cl)cc2)CC1 [Compound No. 619, 1-(4-Chlorobenzyl)-4-[{N-(3-cyanobenzoyl)valyl}aminomethyl]piperidine] |  | 50 to 80% |  |  |
| CC(C)c1ccc(S(=O)(=O)NCC(=O)NCC2CCN(Cc3ccc(Cl)cc3)CC2)cc1 [Compound No. 869, 1-(4-Chlorobenzyl)-4-[{N-(4-isopropylphenylsulfonyl)glycyl}aminomethyl]piperidine] | 20 to 50% | > 80% |  |  |
| Nc1ccc(Br)cc1C(=O)NCC(=O)NCC1CCN(Cc2ccc(Cl)cc2)CC1 [Compound No. 1042, 4-{N-(2-amino-5-bromobenzoyl)glycyl}aminomethyl-1-(4-chlorobenzyl)piperidine] |  | 50 to 80% | < 100 nM | inhibition at 1 µM [3]: > 80%; inhibition at 10 µM ([3]; Method 2, at 10 μM): > 80%; inhibition at 2 µM [2]: 20 to 50% |
| Nc1cc(Cl)ccc1CN1CCC(CNC(=O)CNC(=O)c2cc(C(F)(F)F)ccc2N)CC1 [Compound No. 1919, 4-[{N-(2-Amino-5-trifluoromethylbenzoyl)glycyl}aminomethyl]-1-(2-amino-4-chlorobenzyl)piperidine] |  |  | < 100 nM | inhibition at 1 µM [3]: > 80%; inhibition at 2 µM [2]: 20 to 50% |
| O=C(CNC(=O)c1ccccc1)NC1CCN(Cc2ccc(Cl)cc2)C1 (centres unmarked) [compound 1, 3-(N-Benzoylglycyl)amino-1-(4-chlorobenzyl)pyrrolidine] | 50 to 80% | 50 to 80% |  |  |

— patent US6410566B1, “Cyclic amine derivatives and their use as drugs” (Teijin Limited, priority 2000, dated 2002)
